Patent US8258114B2, “Modulation of glucose-6-phosphatase translocase expression” (Isis Pharmaceuticals, Inc., priority 2004, dated 2012)
Like-named read-outs stand apart in the source and are kept apart here.

Key:
aged Zucker fa/fa rats = test: Oral glucose tolerance test in ZDF rats (Table 17); type: in vivo, rat; details: week 3, rosiglitazone alone 3 mg/kg daily
Experimental: (§1) Saline-injected animals served as a control treatment group.
To further evaluate the effects of ISIS 366228 alone or in combination with rosiglitazone, oral glucose tolerance tests were performed during the third week of treatment. To provide a baseline glucose level, fasted blood glucose levels were measured before the challenge. Glucose was administered by oral gavage via an 18 gauge gavage needle at a dose of 1 g/kg. Plasma glucose levels were measured for 15, 30, 60, 90, and 120 minutes post-challenge, using a glucose analyzer (for example, an Ascencia Glucometer Elite XL, Bayer, Tarrytown, N.Y.).

[1] = Body fat percentage by MRI in Zucker rats (Table 19); details: for % Fat: MRI, rosiglitazone alone 3 mg/kg daily
Experimental: (§2) Male Zucker fa/fa rats, about 17 to 18 weeks of age, purchased from Charles River Laboratories (Wilmington, Mass.), are maintained on a normal rodent diet. Animals are placed into treatment groups of 8 animals each. […] Another treatment group received the food-administered daily doses of 3 mg/kg of rosiglitazone alone. Saline-injected animals served as a control treatment group.
Also monitored throughout the study was body composition. Baseline body composition was measured by MRI prior to the start of treatment (BL). Body composition was also measured during week 3 (Wk 3) and during week 5 (Wk 5) of treatment.

[2] = system: rat glucose-6-phosphatase translocase mRNA; test: Reduction of glucose-6-phosphatase translocase mRNA in liver or kidney of ZDF rats (Table 15); type: in vivo; details: Rattus norvegicus, rosiglitazone alone 3 mg/kg daily in food
Experimental: Saline-injected animals served as a control treatment group. At the end of the treatment period, animals were sacrificed and target reduction in liver and kidney were measured by real-time PCR as described in other examples herein. […] For example, the following primer-probe set was designed to hybridize to rat glucose-6-phosphatase translocase sequences cited in Table 1: Forward primer: [NT] (incorporated herein as SEQ ID NO: 339) Reverse primer: [NT] (incorporated herein as SEQ ID NO: 340) PCR probe: […] (incorporated herein as SEQ ID NO: 341), where FAM is the fluorescent dye and TAMRA is the quencher dye.

[3] = system: catalytic subunit of glucose-6-phosphatase (G6PC) mRNA; test: Reduction of catalytic subunit of glucose-6-phosphatase (G6PC) mRNA in liver or kidney of ZDF rats (Table 15); type: in vivo, rat; details: Rattus norvegicus, rosiglitazone alone 3 mg/kg daily in food
Experimental: as §1
At the end of the treatment period, animals were sacrificed and target reduction in liver and kidney were measured by real-time PCR as described in other examples herein. Also measured were reductions in the catalytic subunit of glucose-6-phosphatase (G6PC) using a primer-probe set designed to hybridize to that mRNA. For example, the following primer-probe set was designed to hybridize to rat glucose-6-phosphatase translocase sequences cited in Table 1:
Results for each treatment group are shown in Table 15 as the average percent reduction in glucose-6-phosphatase translocase levels or in G6PC as compared to saline treated control.

[4] = Plasma lipids (cholesterol, triglycerides, free fatty acids) in ZDF rats (Table 21); type: in vivo, rat
Experimental: as §1
To further assess the physiological effects resulting from inhibition of target mRNA with antisense oligonucleotide alone or in combination with rosiglitazone, the rats were evaluated throughout the treatment period for plasma free fatty acids, plasma cholesterol, and plasma triglyceride levels. Free fatty acids, triglycerides and cholesterol were measured by routine clinical analyzer instruments (e.g. Olympus Clinical Analyzer, Melville, N.Y.). Glucose levels were measured using a glucose analyzer, for example a YSI glucose analyzer (YSI Scientific, Yellow Springs, Ohio).

[5] = Liver transaminases ALT and AST in ZDF rats; details: week 5
Experimental: as §2
The liver transaminases, ALT and AST, were measured throughout the study.

[6] = Plasma glucose levels of ZDF rats, alone or in combination with rosiglitazone (Table 16); type: in vivo, rat; details: rosiglitazone alone 3 mg/kg daily
Experimental: as §1
Plasma glucose levels were evaluated at the beginning of the study (Wk 0), during the first week of treatment (Wk 1), during the third week of treatment (Wk 3), and during the fifth week of treatment (Wk 5).

[7] = Tissue weights (kidney, spleen, liver, fat pad) of ZDF rats (Table 20); details: end of study, rosiglitazone alone
Experimental: Male Zucker fa/fa rats, about 17 to 18 weeks of age, purchased from Charles River Laboratories (Wilmington, Mass.), are maintained on a normal rodent diet. Animals are placed into treatment groups of 8 animals each. One treatment group was dosed subcutaneously twice weekly with 12.5 mg/kg of ISIS 366228 (SEQ ID NO: 203). Another treatment group was dosed twice weekly with 25 mg/kg of ISIS 366228. Other treatment groups were dosed with 12.5 mg/kg or 25 mg/kg ISIS 366228 twice weekly in combination with daily 3 mg/kg doses of rosiglitazone (Rosi) administered in powdered food. Another treatment group received the food-administered daily doses of 3 mg/kg of rosiglitazone alone. Saline-injected animals served as a control treatment group.
Tissue weights were also determined at the end of the study.

[8] = Body weights of ZDF rats (Table 18); details: for Body weight: rosiglitazone alone 3 mg/kg daily

## CN(CCOc1ccc(CC2SC(=O)NC2=O)cc1)c1ccccn1 (stereo not shown) [Rosiglitazone, rosiglitazone, reference compound]
Aged Zucker fa/fa rats; 0 min (fasted)
  plasma glucose, OGTT: 251 mg/dL
Aged Zucker fa/fa rats; 15 min
  plasma glucose, OGTT: 429 mg/dL
Aged Zucker fa/fa rats; 30 min
  plasma glucose, OGTT: 490 mg/dL
Aged Zucker fa/fa rats; 60 min
  plasma glucose, OGTT: 417 mg/dL
Aged Zucker fa/fa rats; 90 min
  plasma glucose, OGTT: 409 mg/dL
Aged Zucker fa/fa rats; 120 min
  plasma glucose, OGTT: 384 mg/dL
[1]
  body fat percentage (in words): resulted in increased body fat
[1]; BL (baseline)
  % Fat: 24%
[1]; Wk 3
  % Fat: 32%
[1]; Wk 5
  % Fat: 36%
[2]; read-out: % Inhibition of glucose-6-phosphatase translocase, Kidney
  inhibition at 3 mg/kg: 0%
[2]; read-out: % Inhibition of glucose-6-phosphatase translocase, Liver
  inhibition at 3 mg/kg: 46%
[3]; read-out: % Inhibition of G6PC, Kidney
  inhibition at 3 mg/kg: 5%
[3]; read-out: % Inhibition of G6PC, Liver
  inhibition at 3 mg/kg: 63%
[4]; Wk 0, rosiglitazone alone
  plasma cholesterol (CHOL): 202 mg/dL
  plasma triglycerides (TRIG): 478 mg/dL
[4]; Wk 1, rosiglitazone alone
  plasma cholesterol (CHOL): 217 mg/dL
  plasma triglycerides (TRIG): 300 mg/dL
[4]; Wk 3, rosiglitazone alone
  plasma cholesterol (CHOL): 220 mg/dL
  plasma triglycerides (TRIG): 327 mg/dL
[4]; Wk 5, rosiglitazone alone
  plasma cholesterol (CHOL): 234 mg/dL
  plasma triglycerides (TRIG): 384 mg/dL
[5]
  liver transaminases ALT and AST (in words): reductions in levels of these indicators of liver function
[6]; Wk 0
  Plasma glucose: 570 mg/dL
[6]; Wk 1
  Plasma glucose: 462 mg/dL
[6]; Wk 3
  Plasma glucose: 487 mg/dL
[6]; Wk 5
  Plasma glucose: 498 mg/dL
[7]
  Fat pad weight: 9 grams
  Kidney weight: 4 grams
  Liver weight: 21 grams
  Spleen weight: 0.6 grams
[8]
  body weight (in words): associated with increased body weight
[8]; Wk 0
  Body weight: 404 g
[8]; Wk 1
  Body weight: 422 g
[8]; Wk 2
  Body weight: 444 g
[8]; Wk 3
  Body weight: 453 g
[8]; Wk 4
  Body weight: 465 g
